Experimental data published in patent publication US20250289800A1, “Selective Parp1 Inhibitor And Application Thereof” (Kangbaida (Sichuan) Biotechnology Co., Ltd., priority 2021, published 2025).

Assays:
[1] = system: monolayer MDCK-MDR1 cells; test: Bidirectional permeability evaluation with MDCK-MDR1 cell model; assay type: in vitro ADME; conditions: 1 μM test compound, 37° C., 2 h
Description: In this experiment, monolayer MDCK-MDR1 cells were used and incubated in a 96-well Transwell plate. A transport buffer containing 1 μM test compound was added to an appropriate administration end well on the apical or basal side, and a DMSO-containing transport buffer was added to an appropriate receiving end well. After incubation at 37° C. for 2 h, the cell plate was removed, the samples (50 μL each) were collected from the top and bottom ends and transferred to a new 96-well plate, and the protein was precipitated by subsequently adding acetonitrile. The samples were analyzed using LC-MS/MS and the concentration of the test compound was determined. The concentration data were used to calculate the apparent permeability coefficients of the transport from the apical side to the basal side and from the basal side to the apical side of the monolayer cells so as to calculate the efflux rate. The integrity of the monolayer cells was assessed by the leakage of Lucifer Yellow after 2 h of incubation.

[2] = Pharmacokinetic test in mice; assay type: in vivo; conditions: ICR mice, oral administration (1 mg/kg), plasma
Description: An appropriate amount of the test compound was precisely weighed and formulated into a 0.1 mg/mL solution with 30% DMSO and 30% HP-β-CD for intravenous injection, and the test compound was formulated into a 0.1 mg/mL solution with 0.5% MC for intragastric administration. Healthy adult male ICR mice were fasted overnight and then given the test compound via intravenous injection (0.5 mg/kg) and intragastric administration (1 mg/kg). Blood (anticoagulated with heparin sodium) was collected from the forelimb vein at different time points (0.083 h, 0.25 h, 0.5 h, 1 h, 2 h, 4 h, 8 h and 24 h) after administration. The blood samples were separated by centrifugation at 6800 g at 4° C. for 10 min to obtain plasma, and all the samples were stored at −80° C. for later testing. The concentration of the prototype drug in plasma was determined by an LC-MS/MS method, and the main pharmacokinetic parameters were calculated using Phoenix WinNonlin7.0.

DLD-1 BRCA2−/− cells = test: DLD-1 BRCA2−/− cell proliferation inhibition experiment; assay type: cell-based; conditions: Homo sapiens, 168 h, 7 d, CellTiter-Glo
Description: 3.1 DLD-1 BRCA2^−/− Cell Proliferation Inhibition Experiment Epithelial cell line DLD-1 BRCA2^−/− from human colorectal adenocarcinoma (Horizon Discovery Ltd., Cat No.: HD105-007) was cultured in an RPMI-1640 medium containing 10% FBS, 1% penicillin-streptomycin solution, 1% L-G and 0.1 mg/mL hygromycin at 37° C. and 5% CO2. By means of cell counting, 1000 DLD-1 BRCA2^−/− cells were seeded into each well of a 96-well plate and cultured overnight. Test compounds (2-fold gradient dilution, starting at the highest dose: 10 μM, a total of 9 gradient concentrations) were added the next day. Moreover, blank control wells containing DMSO at the same concentration were set. The cells were cultured at 37° C. and 5% CO2 for 7 d, CellTiter-Glo® Reagent was then added, and the chemiluminescence values were determined using a microplate reader. The IC50 value was calculated using GraphPad Prism 8 software.

MDA-MB-436 cells = test: MDA-MB-436 cell proliferation inhibition experiment; assay type: cell-based; conditions: Homo sapiens, 168 h, 7 d, Celltiter Glo
Description: Human breast cancer cell line MDA-MB-436 (supplier: ATCC, Cat #HTB-130) was cultured in an L15 medium containing 10% FBS and 1% penicillin-streptomycin solution at 37° C. and 5% CO2. By means of cell counting, 400 MDA-MB-436 cells were seeded into each well of a 384-well plate and cultured overnight. […] Moreover, blank control wells containing 0.1% DMSO were set. The cells were cultured at 37° C. and 5% CO2 for 7 d, a Celltiter Glo assay kit detection solution was then added, and the chemiluminescence values were determined using a microplate reader. The IC50 value was calculated using GraphPad Prism 8 software.

Row | Structure (SMILES) | IC50 (DLD-1 BRCA2−/− cells) [nM] | IC50 (MDA-MB-436 cells) [nM] | further results
1 | CCc1cc2ncc(CN3CCN(c4ccc(C(=O)NC)nc4)CC3)cc2[nH]c1=O [Comparative example 1] |  |  | MDCK-MDRII Papp (A-B) (10−6, cm/s) ([1]; apical to basal): 3.38 10−6, cm/s; MDCK-MDRII Papp (B-A) (10−6, cm/s) ([1]; basal to apical): 43.78 10−6, cm/s; AUC0-t [2]: 47.56 µg·h/mL; Cmax [2]: 5.41 µg/mL; T1/2 [2]: 6.25 h
2 | CCc1cc2ncc(CN3CCN(c4ccc(C#N)cc4F)CC3)cc2[nH]c1=O [Compound 1, 4-(4-((7-ethyl-6-oxo-5,6-dihydro-1,5-naphthyridin-3-yl)methyl)piperazin-1-yl)-3-fluorobenzonitrile] | 1.7 | 12.2 | 
3 | CCc1cc2ncc(CN3CCN(c4ccc(F)cn4)CC3)cc2[nH]c1=O [Compound 3, 3-ethyl-7-((4-(5-fluoropyridin-2-yl)piperazin-1-yl)methyl)-1,5-naphthyridin-2(1H)-one] | 3.3 | 11.1 | 
4 | CCc1cc2ncc(CN3CCN(c4ccc(C#N)nc4)CC3)cc2[nH]c1=O [Compound 4, 5-(4-((7-ethyl-6-oxo-5,6-dihydro-1,5-naphthyridin-3-yl)methyl)piperazin-1-yl)picolinonitrile] | 5.4 |  | 
5 | CCc1cc2ncc(CN3CCN(c4ccc(Cl)cn4)CC3)cc2[nH]c1=O [Compound 10, 7-((4-(5-chloropyridin-2-yl)piperazin-1-yl)methyl)-3-ethyl-1,5-naphthyridin-2(1H)-one] |  | 12.1 | 
6 | CCc1cc2ncc(CN3CCN(c4ccc(-c5cnn(C)c5)cn4)CC3)cc2[nH]c1=O [Compound 21, 3-ethyl-7-((4-(5-(1-methyl-1H-pyrazol-4-yl)pyridin-2-yl)piperazin-1-yl)methyl)-1,5-naphthyridin-2(1H)-one] |  | 27.8 | 
7 | CCc1cc2ncc(CN3CCN(c4ccc(C(F)F)cn4)CC3)cc2[nH]c1=O [Compound 24, 7-((4-(5-(difluoromethyl)pyridin-2-yl)piperazin-1-yl)methyl)-3-ethyl-1,5-naphthyridin-2(1H)-one] |  | 8.3 | 
